Two compounds from patent US20110230476A1, “PI3 KINASE INHIBITORS AND USES THEREOF” (AVILA THERAPEUTICS, INC., priority 2009, published 2011) can be followed below.

The subject of test [1] is SK-OV-3 cells. Nature of the test: SK-OV-3 cell proliferation assay. Type of test: cell-based. The note with it: Homo sapiens; SK-OV-3 proliferation, 72 hours, Cell Titer Glo. The protocol: SK-OV-3 Cell Proliferation Assay
For the SK-OV-3 proliferation Assay, 5000 cells per well were plated in Growth Media (DMEM, 10% FBS, 1% 1-glutamine, 1% penicillin/streptomycin) in 96 well plates. The following day, compounds were added to duplicate wells at concentrations of 10 uM and 3-fold dilutions down to 40 nM. The plates were returned to the incubator for 72 hours and then the assays were developed using Cell Titer Glo (Promega, Madison, Wis.) according to manufacturer's instructions.

The target in test [2] is T1, PI3Kα (p110α/p85α) (Homo sapiens, UniProt P42336).
T1 construct: purchased BPS Bioscience (San Diego, Calif.) or Millipore (Billerica, Mass.)
T1 sequence (P42336 whole entry): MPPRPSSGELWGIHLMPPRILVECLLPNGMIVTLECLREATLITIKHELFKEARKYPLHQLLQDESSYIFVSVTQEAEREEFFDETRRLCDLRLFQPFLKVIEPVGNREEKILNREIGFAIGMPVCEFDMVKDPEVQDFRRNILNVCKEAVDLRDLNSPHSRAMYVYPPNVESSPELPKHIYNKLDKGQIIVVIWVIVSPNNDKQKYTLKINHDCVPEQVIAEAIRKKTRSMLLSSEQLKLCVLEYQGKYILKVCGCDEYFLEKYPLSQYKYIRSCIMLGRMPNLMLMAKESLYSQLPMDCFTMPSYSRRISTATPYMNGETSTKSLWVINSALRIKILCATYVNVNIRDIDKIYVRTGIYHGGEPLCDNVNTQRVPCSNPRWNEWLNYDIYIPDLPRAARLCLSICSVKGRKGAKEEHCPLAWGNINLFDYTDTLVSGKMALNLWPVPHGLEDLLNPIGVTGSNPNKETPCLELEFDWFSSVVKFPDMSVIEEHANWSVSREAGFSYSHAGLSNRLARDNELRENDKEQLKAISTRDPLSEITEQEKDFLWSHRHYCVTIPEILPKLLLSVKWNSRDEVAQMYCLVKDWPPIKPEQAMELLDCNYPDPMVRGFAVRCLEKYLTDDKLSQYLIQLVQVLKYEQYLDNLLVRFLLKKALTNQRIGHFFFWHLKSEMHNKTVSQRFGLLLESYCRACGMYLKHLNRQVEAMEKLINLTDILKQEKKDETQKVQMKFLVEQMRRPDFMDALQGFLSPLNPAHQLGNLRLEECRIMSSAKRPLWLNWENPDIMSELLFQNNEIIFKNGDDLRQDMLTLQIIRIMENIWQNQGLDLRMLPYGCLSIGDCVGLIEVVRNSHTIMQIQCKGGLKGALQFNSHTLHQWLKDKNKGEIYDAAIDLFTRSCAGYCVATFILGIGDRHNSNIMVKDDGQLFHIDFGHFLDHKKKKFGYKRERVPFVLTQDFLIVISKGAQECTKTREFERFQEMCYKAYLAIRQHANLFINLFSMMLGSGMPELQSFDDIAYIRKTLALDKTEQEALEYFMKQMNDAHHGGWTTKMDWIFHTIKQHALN
T1 sequence (P27986 whole entry partner): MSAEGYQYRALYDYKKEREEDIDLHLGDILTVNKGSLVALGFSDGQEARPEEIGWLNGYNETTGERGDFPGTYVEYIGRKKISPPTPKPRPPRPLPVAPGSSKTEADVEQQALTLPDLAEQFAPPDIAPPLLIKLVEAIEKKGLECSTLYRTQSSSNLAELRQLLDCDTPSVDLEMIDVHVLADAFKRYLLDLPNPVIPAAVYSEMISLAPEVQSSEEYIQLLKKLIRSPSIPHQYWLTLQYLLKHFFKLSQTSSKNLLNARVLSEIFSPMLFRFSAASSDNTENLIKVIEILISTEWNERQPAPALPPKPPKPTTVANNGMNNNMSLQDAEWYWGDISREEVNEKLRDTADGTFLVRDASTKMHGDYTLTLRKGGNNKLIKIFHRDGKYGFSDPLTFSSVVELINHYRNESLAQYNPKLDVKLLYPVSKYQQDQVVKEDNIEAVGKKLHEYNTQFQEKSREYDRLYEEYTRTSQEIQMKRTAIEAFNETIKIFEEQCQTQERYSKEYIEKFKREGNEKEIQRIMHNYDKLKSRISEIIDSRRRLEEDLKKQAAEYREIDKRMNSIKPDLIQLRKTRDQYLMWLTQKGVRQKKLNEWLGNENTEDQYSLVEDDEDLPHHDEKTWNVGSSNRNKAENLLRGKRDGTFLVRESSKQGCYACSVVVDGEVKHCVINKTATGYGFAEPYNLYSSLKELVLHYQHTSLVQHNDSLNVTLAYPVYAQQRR
Nature of the test: HTRF assay, potency against active PI3Kα. The note with it: HTRF; [ATP]=50 μM, [di-C8-PIP2]=10 μM; 30 min pre-incubation; read-out: PI3Kα Inhibition. Type of test: biochemical. A digest of the protocol: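 IC50 came from a variable-slope fit of % inhibition, calculated from the HTRF emission ratio relative to wells with and without enzyme. Reactions with the active enzyme complex ran 30-60 minutes at 25 °C after ATP addition before stop and detection reagents.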

For test [3], the system named is PI3K. In words: PI3K HCT116 cellular assay (Western blot). Conditions: Homo sapiens, HCT-116, HCT116 colon cancer cells, 1 hour incubation, read-out: PI3K Inhibition. Type of test: cell-based. The protocol:
PI3K HCT116 Cellular Assay
Selected compounds were assayed in HCT116 colon cancer cells. […] Cells were then washed with PBS, lysed and the protein lysates were then recovered and analyzed by Western blot.

In test [4] the target is PI3Kα (Homo sapiens, UniProt P42336). In words: Mass spectrometry of intact PI3Kα (Johns Hopkins), 3 hr incubation. Type of test: binding. Set-up: Johns Hopkins. Conditions: 10× fold excess of compound, MALDI. The protocol: Mass Spectrometry for PI3K
PI3Kα, sequence (P42336 whole entry): as the sequence (P42336 whole entry) above
PI3Kα, sequence (P27986 322-600 partner limits assumed): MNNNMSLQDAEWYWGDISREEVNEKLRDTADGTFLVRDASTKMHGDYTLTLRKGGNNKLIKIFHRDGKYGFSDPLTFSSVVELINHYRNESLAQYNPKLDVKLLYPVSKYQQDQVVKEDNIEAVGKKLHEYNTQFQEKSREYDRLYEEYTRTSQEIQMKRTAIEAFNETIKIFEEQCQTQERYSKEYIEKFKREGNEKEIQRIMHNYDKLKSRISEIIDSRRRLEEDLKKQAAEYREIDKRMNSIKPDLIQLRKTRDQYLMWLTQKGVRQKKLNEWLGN
Intact PI3Kα (Johns Hopkins) was incubated for 3 hr at a 10× fold excess of II-a-45 or II-a-49 to protein. Aliquots (3 μL) of the samples were diluted with 10 μL of 0.1% TFA prior to micro C4 ZipTipping directly onto the MALDI target using Sinapinic acid as the desorption matrix (10 mg/ml in 0.1% TFA:Acetonitrile 50:50).

The subject of test [5] is SKOV-3 tumors. In words: Tumor growth inhibition in vivo. Conditions: nude mice, subcutaneous SKOV-3 tumors; GDC-941 orally, II-a-3 I.P., 50-100 mg/Kg/QD, 21 days. As for the experimental part: Tumor Growth Inhibition In Vivo
The in vivo experiment was performed at Piedmont Research Center (Research Triangle Park, N.C.). Nude mice were implanted with SKOV-3 tumors subcutaneously. […] Dosing continued for 21 days. Tumor volume was measured twice a week.

`C/C=C/C(=O)CCC(=O)N1CCN(Cc2cc3nc(-c4cccc5[nH]ncc45)nc(N4CCOCC4)c3s2)CC1` [II-a-36, (E)-1-(4-((2-(1H-indazol-4-yl)-4-morpholinothieno[3,2-d]pyrimidin-6-yl)methyl)piperazin-1-yl)hept-5-ene-1,4-dione]: the values for the EC50 in test [1] and in test [3] were 100 to 1000 nM and < 20 nM, respectively. In addition, in test [2], the IC50 was < 10 nM. Also, the “covalent modification of PI3Kα” value in test [4] is given as “completely modify”.
With `CC(C)=CC(=O)CCC(=O)N1CCN(Cc2cc3nc(-c4cccc5[nH]ncc45)nc(N4CCOCC4)c3s2)CC1` [II-a-3, 1-(4-((2-(1H-indazol-4-yl)-4-morpholinothieno[3,2-d]pyrimidin-6-yl)methyl)piperazin-1-yl)-6-methylhept-5-ene-1,4-dione], the tumor growth result in test [5] is on record as “Inhibition of tumor growth”.
